Assay results: PubChem BioAssay (NCI)
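Five compound concentrations were applied to cells in 96-well plates for 48 hours; endpoints were derived by simple linear interpolation of the resulting dose-response curve. At the TGI there is no net growth.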

Key:
Assay in all cases: inhibition of tumour cell growth, NCI panel, 48 h
A549 NSCLC = system: A549 NSCLC
CCRF-CEM leukemia = system: CCRF-CEM leukemia
COLO 205 colon = system: COLO 205 colon
NCI/ADR-RES ovarian = system: NCI/ADR-RES ovarian
SF-295 CNS = system: SF-295 CNS
SN12C renal = system: SN12C renal
SNB-75 CNS = system: SNB-75 CNS
SW-620 colon = system: SW-620 colon
UO-31 renal = system: UO-31 renal
SR leukemia = system: SR leukemia

| SMILES | TGI (A549 NSCLC) | TGI (CCRF-CEM leukemia) | TGI (COLO 205 colon) | TGI (NCI/ADR-RES ovarian) | TGI (SF-295 CNS) | TGI (SN12C renal) | TGI (SNB-75 CNS) | TGI (SW-620 colon) | TGI (UO-31 renal) | TGI (SR leukemia) |
| --- | --- | --- | --- | --- | --- | --- | --- | --- | --- | --- |
| COc1cc2c(cc1OCCCC(=O)Nc1cc(C(=O)Nc3cc(C(=O)Nc4cc(C(=O)NCCCN(C)C)n(C)n4)n(C)n3)n(C)n1)N=CC1CCCN1C2=O (centres undefined) | > 100 µM | > 100 µM | > 100 µM | 81.7 µM | 86.6 µM | 42.3 µM | 52.6 µM | > 100 µM | 16.6 µM | – |
| OCC1OC(n2cnc3cncnc32)C(O)C1O (centres undefined) | 5.8 µM | > 26.1 µM | 1.7 µM | 2.25 µM | 8.32 µM | 3.97 µM | 2.15 µM | 1.84 µM | 6.84 µM | – |
| N=c1oc2ccc3ccccc3c2cc1C(N)=O | > 100 µM | > 100 µM | > 100 µM | > 100 µM | – | > 100 µM | > 100 µM | > 100 µM | – | > 100 µM |
| CN(C)CCNC(=O)c1ccc(NCCCN(C)CCCNc2ccc3c(=O)n(CCN(C)C)c(=O)n4c5ccccc5c(=O)c2c34)c2c(=O)c3ccccc3[nH]c12 | 0.164 µM | – | 0.353 µM | 3.32 µM | 1.06 µM | 0.262 µM | 0.0449 µM | – | 0.301 µM | – |
| O=C1CCC2(CCO1)OCCO2 | > 100 µM | > 100 µM | – | > 100 µM | > 100 µM | > 100 µM | > 100 µM | > 100 µM | > 100 µM | > 100 µM |
| CC(=O)O[C@@H]1C[C@@]23C[C@@]24CC[C@H](OC2OCC(O)C(O)C2O)C(C)(C)[C@@H]4CC=C3[C@]2(C)C[C@@H]3OC4(C[C@@H](C)[C@@H]3[C@@]12C)OC(O)[C@@]1(C)O[C@@H]41 (some centres undefined) | > 100 µM | 63.5 µM | 44 µM | > 100 µM | 80.6 µM | > 100 µM | 58.7 µM | > 100 µM | > 100 µM | – |
| Clc1ccc(Cc2nc3ccccc3nc2-c2cccc(Br)c2)cc1 | 35.6 µM | 5.04 µM | 12 µM | 15.3 µM | 31.2 µM | 10.1 µM | 35.7 µM | 4.49 µM | 3.38 µM | – |
| CN(C)c1nc(N(C)C)nc(N(C)C23CC4CC(CC(C4)C2)C3)n1 | > 100 µM | 66.6 µM | 32.7 µM | > 100 µM | > 100 µM | – | 86 µM | > 100 µM | > 100 µM | > 100 µM |
| CCOP(=O)(OCC)C(Nc1cccc(F)c1)c1ccccc1 (centres undefined) | > 100 µM | > 100 µM | > 100 µM | > 100 µM | > 100 µM | > 100 µM | > 100 µM | – | > 100 µM | > 100 µM |
| Cc1ccc(S(=O)(=O)NNC(=O)c2cc(C)ccc2NC(=O)C23CC4CC(CC(C4)C2)C3)cc1 | > 100 µM | > 100 µM | > 100 µM | > 100 µM | > 100 µM | > 100 µM | – | > 100 µM | 44.9 µM | > 100 µM |
| O=C(CSCC(=O)N/N=C/c1cccs1)N/N=C/c1cccs1 | > 100 µM | > 100 µM | – | > 100 µM | > 100 µM | > 100 µM | > 100 µM | > 100 µM | > 100 µM | – |
| N#Cc1nc(CCCCCN2C(=O)c3ccccc3C2=O)oc1N | > 100 µM | 74.5 µM | > 100 µM | > 100 µM | > 100 µM | > 100 µM | – | > 100 µM | > 100 µM | > 100 µM |
| Nc1cccc2c1C(=O)c1cccc(N)c1C2=O | > 100 µM | > 100 µM | > 100 µM | – | – | > 100 µM | > 100 µM | > 100 µM | > 100 µM | – |
| O=CC(O)C(O)C(O)C(O)C(=O)NCCCCCCCCCCCCNC(=O)C(O)C(O)C(O)C(O)C=O (centres undefined) | > 100 µM | > 100 µM | > 100 µM | > 100 µM | > 100 µM | – | – | > 100 µM | > 100 µM | > 100 µM |
| Cc1ccc(C(C)(C)C[P+](C)(c2ccccc2)c2ccccc2)cc1 | > 100 µM | > 79.3 µM | 18.7 µM | > 100 µM | > 85.2 µM | > 86.3 µM | 50.8 µM | > 100 µM | > 85 µM | – |
| CC(=O)/C(=C/n1c(=S)[nH]c2ccccc21)C(=O)Nc1ccccc1C | > 100 µM | – | > 100 µM | > 100 µM | > 100 µM | > 100 µM | > 100 µM | > 100 µM | > 100 µM | – |
| Cc1ccccc1-n1c(C)nc2c1C(=O)c1ccccc1C2=O | > 100 µM | > 100 µM | – | – | > 100 µM | > 100 µM | – | > 100 µM | > 100 µM | > 100 µM |
| CC(C)=CCC[C@@H](C)C1=C(Nc2ccccc2Cl)C(O)=C(C)C(=O)C1=O | 15.7 µM | – | 9.8 µM | 27.1 µM | 14 µM | 25.2 µM | 22.3 µM | > 56.4 µM | 17.9 µM | > 57.6 µM |
| Cc1ccc(C2=NOC(=O)[C@@H]3CCCC[C@@H]23)cc1 | – | > 100 µM | > 100 µM | > 100 µM | > 100 µM | > 100 µM | > 100 µM | > 100 µM | > 100 µM | > 100 µM |
| CC(=O)OCC1OC(n2c3c(c(-c4cccc5ccccc45)c(C#N)c2=S)CCCC3)C(OC(C)=O)C(OC(C)=O)C1OC(C)=O (centres undefined) | > 100 µM | > 100 µM | > 100 µM | > 100 µM | > 100 µM | > 100 µM | – | > 100 µM | 62.2 µM | > 100 µM |
| CC[N+]1(C)CCC(O)(/C=C/c2ccc(OC)cc2)C(C(=O)/C=C/c2ccc(OC)cc2)C1 (centres undefined) | > 58 µM | – | 8.08 µM | > 60.8 µM | 39.1 µM | > 58.5 µM | 40.6 µM | 7.42 µM | 26.6 µM | – |
| COC(=O)C1CCC(=O)N1C(=O)Cc1ccc(OC)cc1 (centres undefined) | > 100 µM | – | > 100 µM | – | > 100 µM | > 100 µM | > 100 µM | > 100 µM | > 100 µM | – |
| Cc1nc2c3c(ncn2n1)Oc1c(c(-c2ccccc2)nn1-c1ccccc1)C3c1ccc(Cl)cc1 (centres undefined) | > 100 µM | – | > 100 µM | > 100 µM | > 100 µM | > 100 µM | > 100 µM | > 100 µM | > 100 µM | > 100 µM |
